± gives the expanded uncertainty stated by the source.
What was measured:
[1] = 92 kPa, Liquid; for mass density: Vibrating tube method
[2] = xn = mol fraction of the nth substance listed; conditions: 92 kPa, Liquid, x2 = 0; for mass density: Vibrating tube method

viscosity ([1]; 298.15 K)	viscosity ([1]; 303.15 K)	viscosity ([1]; 313.15 K)	viscosity ([1]; 323.15 K)	mass density ([1]; 323.15 K)	viscosity ([1]; 333.15 K)	mass density ([1]; 333.15 K)	viscosity ([1]; 343.15 K)	mass density ([1]; 343.15 K)	viscosity ([2]; 298.15 K)	viscosity ([2]; 303.15 K)	viscosity ([2]; 313.15 K)	mass density ([2]; 323.15 K)	viscosity ([2]; 323.15 K)	mass density ([2]; 333.15 K)	viscosity ([2]; 333.15 K)	mass density ([2]; 343.15 K)	viscosity ([2]; 343.15 K)	mass density ([1]; 313.15 K)	SMILES
0.89 ± 0.089 mPa·s	0.805 ± 0.082 mPa·s	0.653 ± 0.069 mPa·s	0.547 ± 0.06 mPa·s	988.04 ± 0.06 kg/m3	0.466 ± 0.053 mPa·s	983.12 ± 0.06 kg/m3	0.405 ± 0.047 mPa·s	977.77 ± 0.06 kg/m3	–	–	–	–	–	–	–	–	–	–	O [water]
–	–	–	–	–	–	–	–	–	0.89 ± 0.089 mPa·s	0.805 ± 0.082 mPa·s	0.653 ± 0.069 mPa·s	988.04 ± 0.06 kg/m3	0.547 ± 0.06 mPa·s	983.12 ± 0.06 kg/m3	0.466 ± 0.053 mPa·s	977.77 ± 0.06 kg/m3	0.405 ± 0.047 mPa·s	–	O [water] + CC(C)(N)CO
–	–	47.8 ± 3.2 mPa·s	25.1 ± 1.7 mPa·s	911.24 ± 1.4 kg/m3	14.4 ± 1 mPa·s	902.87 ± 1.4 kg/m3	8.91 ± 0.69 mPa·s	894.28 ± 1.4 kg/m3	–	–	–	–	–	–	–	–	–	919.65 ± 1.4 kg/m3	CC(C)(N)CO [2-amino-2-methylpropan-1-ol]

— the NIST ThermoML archive (doi:10.1021/je0201119)
